Reference: patent publication US20240382487A1, “NOVEL COPI/ARF1-LIPOLYSIS PATHWAY INHIBITOR AND COMPOUND FOR ERADICATING CANCER STEM CELLS AND INDUCING DAMP-MEDIATED ANTI-TUMOR IMMUNE RESPONSE” (FUDAN UNIVERSITY, priority 2020, published 2024)
Where two headings read alike, the source gives them in different places.

Columns and labels:
[1] = system: colorectal cancer cell line HT29; test: In vitro cell line screening, HT29; assay type: cell-based
Source text: In different tumor cytotoxicity experiments in vitro (FIG. 2-FIG. 7), including colorectal cancer cell lines HT29 and LoVo cells, liver cancer cell Huh7, lung cancer cells H460 and A549, the arf1 inhibitor could all inhibit tumor cell growth (FIG. 2-FIG. 6), and there was a dose-dependent manner (FIG. 7).

4T1 breast carcinoma [2] = test: Vaccination model, drug-treated 4T1 cells in BALB/c mice; assay type: in vivo; set-up: unit not given here; conditions: 4T1, BALB/c mice; for tumor size, left side with drug treatment: cells treated with 10 μM Du 102
[3] = system: T cell activation markers; test: T cell activation markers, 4T1 breast carcinoma in BALB/c mice; assay type: in vivo; conditions: DMSO 1.0
Source text: Example 10. Du 102 Treatment Induces the Expression of T Cell Activation Markers of 4T1 Breast Cancer in BALB/c Mice

[4] = system: MHC expression, CD4 and CD8 T cell infiltration; test: MHC expression and T-cell infiltration in MYC-ON mice; assay type: in vivo
Source text: Du 102 treatment increases MHC expression. CD4 and CD8 T cell infiltration as quantified by Q-PCR in myc-on mice (Table 16).
MHC-1 or MHC-II positive infiltrating CD4+ and CD8+ T-cells measured by immunohistochemical staining of representative section.

INFγ = test: IFN-γ assay, CD11c+ DC and CD8+ T cells co-cultured with treated CT26 cells; assay type: cell-based; conditions: CT-26 colon cancer model, BALB/c mice; co-culture 2 days
Protocol: For IL-1 β Assay: seven days after CT26 cell lysate injection. CD11c+DCs were isolated from injected BALB/c mice and co cultured with CT26 cells treated with DMSO or du102. After 2 days, […] was measured in harvested cells (Table 11). For the IFN-y assay: CD11c^+ DC and CD8^+ T cells were isolated from injected BALB/c mice 7 days after CT26 cell lysate injection and co cultured with CT26 cells treated with DMSO or du102. After 2 days. IFN-y was measured in harvested cells (table 11).

4T1 breast carcinoma [5] = test: Drug-treated 4T1 cells in athymic nude mice; assay type: in vivo; set-up: unit not given here; conditions: cells treated with 10 μM Du 102
Protocol: The immunogenicity of the reagents can be tested in mouse vaccination models (Obeid et al., 2007; Sagiv barfi et al., 2018). One flank of the mouse was injected with drug treated tumor cells, followed one week later by a second injection of syngeneic tumor cells. We tested the vaccine efficacy in CT-26 colon cancer, B16-F10 melanoma, and 4T1 breast cancer treated with DMSO or du102.
Cells will be treated with 10 μM Du 102 or DMSO treated CT26, 4T1 and B16-F10 tumor cells (5×10^5\1×10^5 and 5×10^5, respectively) were subcutaneously inoculated into 6-week-old female mice. After 7 days, equal amounts of corresponding tumor cells were seeded to the right side. Tumor cell lines were mixed with Matrigel (GIBCO, cat s̆ 354234) or resuspended in PBS and injected subcutaneously or intradermally.

1H-indolo-5-carbaldehyde 5,6,7,8,9,10-hexahydrocycloocta[4,5]thieno[2,3-d]pyrimidin-4-ylhydrazone [Du 102]
tumor suppressive effect [1]: some tumor suppressive effect | tumor suppressive effect ([1]; listed as Dul02): effective tumor suppressive effects | tumors on right side after vaccination on left side (4T1 breast carcinoma [2]; Day 0): 0 | tumor size, left side with drug treatment (4T1 breast carcinoma [2]; Day 0): 0 | tumors on right side after vaccination on left side (4T1 breast carcinoma [2]; Day 5): 0 | tumor size, left side with drug treatment (4T1 breast carcinoma [2]; Day 5): 0 | tumors on right side after vaccination on left side (4T1 breast carcinoma [2]; Day 10): 0 | tumor size, left side with drug treatment (4T1 breast carcinoma [2]; Day 10): 2.3 | tumors on right side after vaccination on left side (4T1 breast carcinoma [2]; Day 15): 0 | tumor size, left side with drug treatment (4T1 breast carcinoma [2]; Day 15): 18.4 | tumors on right side after vaccination on left side (4T1 breast carcinoma [2]; Day 20): 3.2 | tumor size, left side with drug treatment (4T1 breast carcinoma [2]; Day 20): 63.5 | tumors on right side after vaccination on left side (4T1 breast carcinoma [2]; Day 25): 7.9 | tumor size, left side with drug treatment (4T1 breast carcinoma [2]; Day 25): 102.4 | tumors on right side after vaccination on left side (4T1 breast carcinoma [2]; Day 30): 16.4 | tumor size, left side with drug treatment (4T1 breast carcinoma [2]; Day 30): 173.6 | Gzm8 expression [3]: 2.3 | GzmA expression [3]: 2.2 | IL-1β expression [3]: 2.2 | INFγ expression [3]: 2.1 | PD-L1 expression [3]: 0.5 | Perforin expression [3]: 2.5 | MHC-1 ([4]; DMSO 0.6): 51.7 | MHC-II ([4]; DMSO 0.7): 43.6 | CD4 ([4]; DMSO 1.0): 13.2 | CD8 ([4]; DMSO 2.0): 13.5 | INFγ (INFγ): 623 | 4T1 breast carcinoma tumor in Athymic mice (4T1 breast carcinoma [5]; Day 0): 0 | 4T1 breast carcinoma tumor in Athymic mice (4T1 breast carcinoma [5]; Day 5): 21.7 | 4T1 breast carcinoma tumor in Athymic mice (4T1 breast carcinoma [5]; Day 10): 41.3 | 4T1 breast carcinoma tumor in Athymic mice (4T1 breast carcinoma [5]; Day 15): 163.3 | 4T1 breast carcinoma tumor in Athymic mice (4T1 breast carcinoma [5]; Day 20): 385.4 | 4T1 breast carcinoma tumor in Athymic mice (4T1 breast carcinoma [5]; Day 25): 793.2
